From patent US12018023B2 (NERVIANO MEDICAL SCIENCES S.R.L., priority 2018, dated 2024) come the findings set out here.

The target of test [1] is T1, IDH1WT enzyme (Homo sapiens, UniProt O75874).
T1 construct: purchased not specified
As to the kind of experiment: Enzymatic assay for IDH1 wild-type (NADPH forming assay). The test is classed as biochemical. Here is the method: IDH1WT enzymatic activity converting isocitric acid to alpha-ketoglutarate is measured using a NADPH forming assay. In the assay the forming cofactor is measured in continuous with the addition of a catalytic excess of diaphorase and resazurin, to generate a fluorescent signal in proportion to the amount of NADPH forming.
Compounds were preincubated with the enzyme, then the reaction was started by the addition of NADP^+, isocitrate, diaphorase and a corresponding substrate, resazurin. Diaphorase reduces resazurin to the highly fluorescent resorufin with the concomitant oxidation of NADPH to NADP. Specifically, 0.2 uL of test compound, previously serially diluted 1 to 3, 10 experimental points from 1 mM in DMSO, was added to 0.016 nM IDH1WT enzyme in 10 μL of Assay Buffer (150 mM NaCl, 50 mM Tris-HCl pH 7.6, 10 mM MgCl2, 0.001% Triton X-100, 4 mM β-mercaptoethanol); the mixture is incubated for 15 minutes at room temperature. The reaction is started with the addition of 10 μL of Substrate Mix (400 μM NADP^+, 40 μM iso-citrate, 5 ugr/mL Diaphorase and 7 μM resazurin in Assay Buffer), the mixture is incubated at room temperature and the reaction is reading on a ViewLux as platereader at Ex544/Em590 in continuous.

For test [2], the target named is T2, IDH1^R132H homodimer enzyme (Homo sapiens, UniProt O75874, R132H).
T2 construct: purchased not specified
As to the kind of experiment: NADPH depletion assay, IDH1 R132H. The test is classed as biochemical. An outline of the steps:
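IDH1 R132H enzyme (8 nM as diluted) in Tris-HCl pH 7.6 with 10 mM MgCl2, 0.001% Triton X-100 and 4 mM β-mercaptoethanol is preincubated 15 min at RT with compound. Substrate mix (12 uM NADPH, 3.4 mM α-ketoglutarate) is added for 60 min; remaining NAD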

In test [3] the target is T3, IDH1^R132C (Homo sapiens, UniProt O75874, R132C).
T3 construct: purchased not specified
As to the kind of experiment: NADPH depletion assay, IDH1 R132C. Type of test: biochemical. An outline of the steps:
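Fluorescence readout (Ex544/Em590) of NADPH left after diaphorase/resazurin addition. Alpha-ketoglutarate 0.14 mM final, enzyme 2 nM final; compound preincubation 15 min, then 60 min reaction, both at room temperature, pH 7.6 Tris buffer.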

Test [4] addresses T4, IDH2^R172K (Homo sapiens, UniProt P48735, R172K).
T4 construct: purchased not specified
T4 sequence (P48735 40-452 R172K): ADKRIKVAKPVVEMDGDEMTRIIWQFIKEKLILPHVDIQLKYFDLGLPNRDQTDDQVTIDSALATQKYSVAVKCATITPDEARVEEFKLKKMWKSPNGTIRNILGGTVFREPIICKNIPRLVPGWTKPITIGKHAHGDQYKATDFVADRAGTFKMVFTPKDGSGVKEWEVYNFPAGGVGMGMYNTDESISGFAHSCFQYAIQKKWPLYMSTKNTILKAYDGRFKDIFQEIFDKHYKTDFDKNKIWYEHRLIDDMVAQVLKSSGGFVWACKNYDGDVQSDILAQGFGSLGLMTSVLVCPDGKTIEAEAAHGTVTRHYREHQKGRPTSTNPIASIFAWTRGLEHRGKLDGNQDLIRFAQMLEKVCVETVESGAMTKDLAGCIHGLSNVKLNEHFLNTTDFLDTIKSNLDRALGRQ
Put plainly: NADPH depletion assay, IDH2 R172K. The test is classed as biochemical. An outline of the steps:
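This NADPH depletion assay measures NADPH left after conversion of alpha-ketoglutarate (0.55 mM final) by 16 nM IDH2 R172K over 60 min at room temperature, after a 15 min compound preincubation in pH 7.6 Tris buffer. Substrate mix held 12 μM NADPH. Diaphorase/resazurin gave the fluorescence read-out at 544/590 nm.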

Test [5] relates to HT-1080 (IDH1^R132C). As to the kind of experiment: Cellular 2-HG production assay, HT-1080. Type of test: cell-based. As to conditions: Homo sapiens, HT-1080, 72 h, inhibition of 2HG production, 72 hr incubation, LC-MS/MS; read-out: HT1080 2-HG IC50. An outline of the steps: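 Cells in E-MEM/10% FCS (G418 500 μg/mL for the transfected U87-MG line) at 500 per well got compound 24 h after seeding and were incubated 72 h at 37 °C. Medium 2-HG was measured by LC-MS/MS with 2-HG-d3 internal standard; IC50 came from sigmoidal fitting versus controls.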

The test system of test [6] is U87MG_IDH1R132H. As to the kind of experiment: Cellular 2-HG production assay, U87-MG-IDH1 R132H. Type of test: cell-based. As to conditions: inhibition of 2HG production, 72 hr incubation, LC-MS/MS. Here is the method:
Cell lines HT-1080 (commercially available) and U87-MG-IDH1^R132H (obtained in analoy to the procedure reported in J. Mol. Neurosci 2013, 50, 165-71) are maintained in E-MEM 10% FCS and incubated at 37° C. in a humidified 5% CO2 atmosphere. Stably transfected U87-MG cell lines are also supplemented with 500 μg/mL G418.
Cells are seeded into 96 well black flat bottom plates at a density of 500 cells/well in 100 μL complete medium. After 24 hr the medium is replaced with 200 uL of fresh medium and compounds (dissolved into DMSO) are administrated to the cells using D300E Digital Dispenser (Tecan).
After 72 hr of incubation 100 uL from each well are collected and used for 2HG (R(−)-2-hydroxyglutarate) quantification.
Levels of 2-HG in cell culture media are determined by LC-MS/MS. Cell supernatants (100 μL/well) are treated with 1 M aqueous trichloroacetic acid containing 130 μM of the internal standard 2-HG-d3 (20 μL/well) in a 96-well plate.
The plates are sealed, mildly vortexed for 60 minutes, centrifuged at 4,000 RPM for 15 minutes, placed in a refrigerated autosampler taking care not to shake them, and aliquots of the upper part of the samples are directly injected in the chromatographic system. Calibration standards are obtained by ten fold dilution of aqueous 2-HG stock solutions with blank cell culture medium and denatured exactly in the same way as described above for samples. Samples and standards are assayed for 2-HG by reversed phase chromatography on a C18 column eluted with aqueous 0.15% formic acid and briefly washed with 90% methanol at the end of the run. 2-HG is determined by negative ion electrospray ionization with the internal standard method on a triple quadrupole mass spectrometer monitoring the MRM transitions 147>129 (2-HG) and 150>132 (2-HG-d3). 2-HG inhibition was calculated by comparing treated versus control data using Assay Explore (Symyx) software, with IC50 determined using a sigmoidal fitting algorithm.

The structures appear in SMILES notation.

T1 sequence (O75874 whole entry): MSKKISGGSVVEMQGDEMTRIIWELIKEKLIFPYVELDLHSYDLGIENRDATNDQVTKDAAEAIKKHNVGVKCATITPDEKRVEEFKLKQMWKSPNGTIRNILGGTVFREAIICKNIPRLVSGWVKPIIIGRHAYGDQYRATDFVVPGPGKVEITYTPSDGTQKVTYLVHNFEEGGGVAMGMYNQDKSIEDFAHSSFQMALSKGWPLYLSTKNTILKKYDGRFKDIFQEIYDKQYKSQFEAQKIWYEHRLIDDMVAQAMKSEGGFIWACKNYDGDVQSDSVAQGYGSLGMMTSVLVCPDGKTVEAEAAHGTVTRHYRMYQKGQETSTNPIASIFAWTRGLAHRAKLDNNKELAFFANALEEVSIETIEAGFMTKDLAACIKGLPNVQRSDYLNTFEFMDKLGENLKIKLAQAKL
T2 sequence (O75874 whole entry R132H): as the sequence (O75874 whole entry) above, with R132H counted along it
T3 sequence (O75874 whole entry R132C): as the sequence (O75874 whole entry) above, with R132C counted along it

With `C=CC(=O)N1CC=C(c2ccc([C@H](C)Nc3ncc4ccc(=O)n([C@@H](C)C(C)C)c4n3)cc2)CC1` [cpd 168, 2-({(1S)-1-[4-(1-acryloyl-1,2,3,6-tetrahydropyridin-4-yl)phenyl]ethyl}amino)-8-[(2S)-3-methylbutan-2-yl]pyrido [2,3-d]pyrimidin-7(8H)-one], the 50% inhibitory concentration (IC50) (as a rule, the concentration needed to halve the response being measured) in test [1] stood at 758 nM; in test [2], 29 nM; in test [3] it was 16 nM; in test [4], 137 nM.

As for `C=CC(=O)N1CCN([C@@H](CC)c2ccc(C3(Nc4ncc5ccc(=O)n(C(C)C)c5n4)CC3)cc2)CC1` (single isomer, unassigned) [cpd 249], the IC50 in test [1] came out at 215 nM; in test [2], 5 nM; in test [3], 3 nM; in test [5], 2.9 nM; in test [4] it was 33 nM.

Regarding `C=CC(=O)N1CCN(C(CC)c2ccc([C@H](C)Nc3ncc4ccc(=O)n(C(C)C)c4n3)cc2)CC1` (stereo partly drawn) [cpd 187, 2-{[(1S)-1-{4-[1-(4-acryloylpiperazin-1-yl)propyl]phenyl}ethyl]amino}-8-(propan-2-yl)pyrido[2,3-d]pyrimidin-7(8H)-one], the IC50 was 541 nM in test [1]; 2 nM in test [2]; 2 nM in test [3]; below 1 nM in test [5]; 18 nM in test [4].

In the case of `C=C(C)C(=O)N1CCN(Cc2ccc([C@H](C)Nc3ncc4ccc(=O)n([C@@H](C)C(C)C)c4n3)cc2)CC1` [cpd 162, 8-((S)-1,2-Dimethyl-propyl)-2-((S)-1-{4-[4-(2-methyl-acryloyl)-piperazin-1-ylmethyl]-phenyl}-ethylamino)-8H-pyrido[2,3-d]pyrimidin-7-one], the IC50 in test [1] stood at 3900 nM; in test [2], 84 nM; in test [3] it was 30 nM.

Turning to `C=CC(=O)N1CCN(Cc2ccc([C@H](C)Nc3ncc4ccc(=O)n([C@@H](C)C(F)(F)F)c4n3)cc2)CC1` [cpd 169, 2-{[(1S)-1-{4-[(4-acryloylpiperazin-1-yl)methyl]phenyl}ethyl]amino}-8-[(2S)-1,1,1-trifluoropropan-2-yl]pyrido [2,3-d]pyrimidin-7(8H)-one], the IC50 in test [1] came to 2850 nM; in test [2], 193 nM; in test [3], 179 nM; in test [4] it was 414 nM.

As to `C=C(C)C(=O)N1CCN(Cc2ccc([C@H](C)Nc3ncc4ccc(=O)n(CC(C)(C)C)c4n3)cc2)CC1` [cpd 144, 8-(2,2-dimethylpropyl)-2-{[(1S)-1-(4-{[4-(2-methylacryloyl)piperazin-1-yl]methyl}phenyl)ethyl]amino} pyrido [2,3-d]pyrimidin-7(8H)-one], the IC50 in test [1] is 6800 nM; in test [2] it was 78 nM; in test [3] it was 25 nM.

`C=CC(=O)N1CCN(Cc2ccc([C@H](C)Nc3ncc4ccc(=O)n(C(C)C)c4n3)cc2F)CC1` [cpd 183, 2-{[(1S)-1-{4-[(4-acryloylpiperazin-1-yl)methyl]-3-fluorophenyl}ethyl]amino}-8-(propan-2-yl)pyrido[2,3-d]pyrimidin-7(8H)-one]: the IC50 in test [1] was 899 nM; in test [2] it was 52 nM; in test [3], 39 nM; in test [5] it was 21 nM.

As for `C=CC(=O)N1CCN(c2ccc([C@H](C)Nc3ncc4ccc(=O)n([C@@H](C)C(C)C)c4n3)cn2)CC1` [cpd 181, 2-({(1S)-1-[6-(4-acryloylpiperazin-1-yl)pyridin-3-yl]ethyl}amino)-8-[(2S)-3-methylbutan-2-yl]pyrido[2,3-d]pyrimidin-7(8H)-one], the IC50 in test [1] is 2140 nM; in test [2], 175 nM; in test [3], 351 nM; in test [4], 878 nM.

As for `C=CC(=O)N1CCN(Cc2ccc([C@H](C)Nc3ncc4ccc(=O)n(CC)c4n3)cc2)CC1` [cpd 186, 2-{[(1S)-1-{4-[(4-acryloylpiperazin-1-yl)methyl]phenyl}ethyl]amino}-8-ethylpyrido[2,3-d]pyrimidin-7(8H)-one], the IC50 in test [1] worked out at 5460 nM; in test [2] it was 392 nM; in test [3] it was 811 nM; in test [4], 431 nM.

Turning to `CC(C)n1c(=O)ccc2cnc(N[C@@H](C)c3ccc(CN4CCCC(F)(F)C4)cc3)nc21` [cpd 170, 2-{[(1S)-1-{4-[(3,3-difluoropiperidin-1-yl)methyl]phenyl}ethyl]amino}-8-(propan-2-yl)pyrido[2,3-d]pyrimidin-7(8H)-one], the IC50 in test [2] stood at 167 nM; in test [3], 90 nM; in test [6], 637 nM; in test [5], 442 nM; in test [4], 3110 nM.

In test [1], `C=CC(=O)N1CCN(Cc2ccc([C@H](C)Nc3ncc4ccc(=O)n(C(C)C)c4n3)cn2)CC1` [cpd 213, 2-{[(1S)-1-{6-[(4-acryloylpiperazin-1-yl)methyl]pyridin-3-yl}ethyl]amino}-8-(propan-2-yl)pyrido[2,3-d]pyrimidin-7(8H)-one] yielded an IC50 of 4290 nM.

In the case of `C[C@H](Nc1ncc2ccc(=O)n(CC(C)(C)C)c2n1)c1ccc(Oc2ccccc2)cc1` [cpd 49, 8-(2,2-dimethylpropyl)-2-{[(1S)-1-(4-phenoxyphenyl)ethyl]amino}pyrido[2,3-d]pyrimidin-7(8H)-one], the IC50 in test [2] was 118 nM; in test [3], 67 nM; in test [6], 507 nM; in test [5], 307 nM; in test [4], 4360 nM.

`C=CC(=O)N1CCN(Cc2ccc([C@H](C)Nc3ncc4ccc(=O)n([C@@H](C)C(C)C)c4n3)cc2)CC1` [cpd 161, 2-{(S)-1-[4-(4-Acryloyl-piperazin-1-ylmethyl)-phenyl]-ethylamino}-8-((S)-1,2-dimethyl-propyl)-8H-pyrido[2,3-d]pyrimidin-7-one]: the IC50 worked out at 908 nM in test [1], 22 nM in test [2], 13 nM in test [3] and 299 nM in test [4].
